Results taken from ChEMBL document CHEMBL3872207, “Aromatic heterocyclic esters of podophyllotoxin exert anti-MDR activity in human leukemia K562/ADR cells via ROS/MAPK signaling pathways” (Eur J Med Chem, 2016).

What was measured:
[1] = Antiproliferative activity against human K562 cells measured after 72 hrs by CCK8 assay; format: functional, cell-based; details: K562, 72 h
K562/Adr [2] = assay: Induction of intracellular ROS accumulation in human K562/ADR cells assessed as fluorescence intensity at 0.1 uM measured after 24 hrs by DCFH-DA probe based flow cytometry relative to vehicle-treated control; format: functional
K562/Adr [3] = assay: Induction of ERK1/2 phosphorylation in human K562/ADR cells assessed as ratio of phosphorylated ERK1/2 to beta-actin level at 0.1 uM pretreated with MAPK inhibitor SP600125 for 1 hr followed by compound addition after 48 hrs by Western blotting method (reference value: 0.22); format: cell-based
[4] = target: MAP kinase p38 (Homo sapiens) (UniProt O15264+Q15759+Q16539+P53778); assay: Induction of P38 phosphorylation in human K562/ADR cells assessed as ratio of phosphorylated p38 to beta-actin level at 0.1 uM pretreated with MAPK inhibitor SB203580 for 1 hr followed by compound addition after 48 hrs by Western blotting method (reference value: 0.25); format: cell-based
[5] = Downregulation of CDK1 expression in human K562/ADR cells assessed as ratio of CDK1 to beta-actin level at 0.1 uM pretreated with MAPK inhibitor SP600125for 1 hr followed by compound addition measured after 48 hrs by Western blot analysis (reference value: 0.53); format: functional, cell-based
[6] = Downregulation of CDK2 expression in human K562/ADR cells assessed as ratio of CDK2 to beta-actin level at 0.1 uM measured after 48 hrs by Western blot analysis (reference value: 0.65); format: functional, cell-based
[7] = Downregulation of CDK2 expression in human K562/ADR cells assessed as ratio of CDK2 to beta-actin level at 0.1 uM pretreated with MAPK inhibitor SP600125 for 1 hr followed by compound addition measured after 48 hrs by Western blot analysis (reference value: 0.65); format: functional, cell-based
[8] = Downregulation of CyclinA expression in human K562/ADR cells assessed as ratio of CyclinA to beta-actin level at 0.1 uM measured after 48 hrs by Western blot analysis (reference value: 0.64); format: functional, cell-based
K562/Adr [9] = assay: Induction of apoptosis in human K562/ADR cells assessed as late apoptotic cells at 0.1 uM after 48 hrs by Annexin V-APC/7-AAD staining based flow cytometry (reference value: 1.69%); format: functional
K562/Adr [10] = assay: Induction of apoptosis in human K562/ADR cells assessed as late apoptotic cells at 0.1 uM pretreated with MAPK inhibitor SP600125 for 1 hr followed by compound addition after 48 hrs by Annexin V-APC/7-AAD staining based flow cytometry (reference value: 1.69%); format: functional; set-up: scale not given: the % may be the effect or the level left
K562/Adr [11] = assay: Induction of apoptosis in human K562/ADR cells assessed as ratio of cleaved caspase-3 to beta-actin level at 0.1 uM pretreated with ROS scavenger NAC for 2 hrs followed by compound addition measured after 48 hrs by Western blot analysis (reference value: 0.06); format: functional
K562/Adr [12] = assay: Induction of apoptosis in human K562/ADR cells assessed as ratio of cleaved caspase-9 to beta-actin level at 0.1 uM pretreated with ROS scavenger NAC for 2 hrs followed by compound addition measured after 48 hrs by Western blot analysis (reference value: 0.05); format: functional
K562/Adr [13] = assay: Induction of apoptosis in human K562/ADR cells assessed as ratio of cleaved PARP to beta-actin level at 0.1 uM pretreated with ROS scavenger NAC for 2 hrs followed by compound addition measured after 48 hrs by Western blot analysis (reference value: 0.04); format: functional
K562/Adr [14] = assay: Induction of apoptosis in human K562/ADR cells assessed as ratio of cleaved caspase-8 to beta-actin level at 0.1 uM pretreated with MAPK inhibitor SP600125 for 1 hr followed by compound addition measured after 48 hrs by Western blot analysis (reference value: 0.07); format: functional
K562/Adr [15] = assay: Induction of apoptosis in human K562/ADR cells assessed as ratio of cleaved PARP to beta-actin level at 0.1 uM pretreated with MAPK inhibitor SP600125 for 1 hr followed by compound addition measured after 48 hrs by Western blot analysis (reference value: 0.04); format: functional

For `COc1cc([C@@H]2c3cc4c(cc3[C@H](OC(=O)c3ccco3)[C@H]3COC(=O)[C@H]23)OCO4)cc(OC)c1OC`, the IC50 [1] was 25 nM, the “fold change (FC)” value (K562/Adr [2]) was 2.396 and the Ratio (K562/Adr [3]) was 0.06. For the same compound, the Ratio [4] was 0.02, the Ratio [5] was 0.19 and the Ratio [6] was 0.14. The Ratio [7] was 0.22, the Ratio [8] was 0.15 and the Activity (K562/Adr [9]) was 40.45%. The Activity (K562/Adr [10]) was 30.33%, the Ratio (K562/Adr [11]) was 0.2 and the Ratio (K562/Adr [12]) was 0.1. For the same compound, the Ratio (K562/Adr [13]) was 0.13, the Ratio (K562/Adr [14]) was 0.47 and the Ratio (K562/Adr [15]) was 0.53.
